pIC50: −log10 of the molar value. Converted amounts (≈) assume the structure as drawn.
Assays:
[1] = tested on: Mycobacterium tuberculosis; assay: Antimycobacterial activity against Mycobacterium tuberculosis H37Rv incubated for 5 days by two-fold serial dilution method; type: functional; conditions: 120 h, time 5 day
[2] = tested on: Mycobacterium tuberculosis; assay: Antimycobacterial activity against Mycobacterium tuberculosis H37Rv ATCC 27294 incubated for 5 days by microplate alamar blue assay; type: functional; conditions: H37Rv ATCC 27294, 120 h, time 5 day
[3] = tested on: Mycobacterium tuberculosis; assay: Bactericidal activity against Mycobacterium tuberculosis H37Rv at 8 ug/ml measured within 7 days; type: functional; conditions: dose 8 µg/ml; time day <=7
[4] = tested on: Mycobacterium tuberculosis; assay: Antimycobacterial activity against Mycobacterium tuberculosis H37Rv; type: functional
CHO-K1 = assay: Cytotoxicity against CHO-K1 cells incubated for 24 hrs by MTT assay; type: cell-based; conditions: Cricetulus griseus, CHO-K1, 24 h
[5] = Selectivity index, ratio of IC50 for CHO-K1 cells to MIC for Mycobacterium tuberculosis H37Rv; type: toxicity; conditions: hamster
[6] = tested on: Mycobacterium tuberculosis; assay: Antimycobacterial activity against Mycobacterium tuberculosis H37Rv incubated for 7 days by microplate alamar blue assay; type: functional; conditions: 168 h, time 7 day
[7] = tested on: Mycobacterium tuberculosis; assay: Antimycobacterial activity against Mycobacterium tuberculosis H37Rv incubated for 5 days by microplate alamar blue assay; type: functional; conditions: 120 h, time 5 day
[8] = tested on: Mycobacterium tuberculosis; assay: Antimycobacterial activity against Mycobacterium tuberculosis H37Rv assessed as percentage inhibition at 250 ug/ml measured after 2 to 4 weeks by Lowensteine-Jensen method relative to control; type: functional; conditions: time 2-4 weeks
[9] = Toxicity in brine shrimp nauplii assessed as induction of lethality incubated for 24 hrs by counting method; conditions: artemia salina
[10] = tested on: Mycobacterium tuberculosis; assay: Antimycobacterial activity against Mycobacterium tuberculosis H37Ra ATCC 25177; type: functional
[11] = tested on: Mycobacterium tuberculosis; assay: Antimycobacterial activity against Mycobacterium tuberculosis H37Ra ATCC 25177 by two fold dilution technique; type: functional
[12] = tested on: Mycobacterium tuberculosis; assay: Antimycobacterial activity against Mycobacterium tuberculosis H37Rv ATCC 27294 incubated for 6 days by resazurin microtiter assay; type: functional; conditions: H37Rv ATCC 27294, 144 h, time 6 day, read-out: MIC100
[13] = tested on: Mycobacterium tuberculosis; assay: Antimycobacterial activity against Mycobacterium tuberculosis 209 incubated for 6 days by resazurin microtiter assay; type: functional; conditions: Mycobacterium tuberculosis, 209, 144 h; time 6 day; read-out: MIC100
[14] = tested on: Mycobacterium tuberculosis; assay: Antimycobacterial activity against Mycobacterium tuberculosis H37Ra incubated for 6 days by resazurin microtiter assay; type: functional; conditions: 144 h, time 6 day
[15] = tested on: Mycobacterium tuberculosis; assay: Antimycobacterial activity against Mycobacterium tuberculosis H37Rv ATCC 27294 by agar dilution method; type: functional
Mycolicibacterium phlei = assay: Antimycobacterial activity against Mycobacterium phlei incubated for 5 days by microplate alamar blue assay; type: functional; conditions: 120 h, time 5 day
[16] = tested on: Mycobacterium tuberculosis; assay: Antimycobacterial activity against Mycobacterium tuberculosis H37Rv ATCC 27294; type: functional
[17] = tested on: Mycolicibacterium smegmatis; assay: Antimycobacterial activity against Mycobacterium smegmatis ATCC607 incubated for 16 to 24 hrs by microdilution liquid method; type: functional; conditions: time 16-24 hrs
[18] = tested on: Mycobacterium tuberculosis; assay: Antimycobacterial activity against Mycobacterium tuberculosis; type: functional, organism-based

SMILES: c1csc(-c2nnc(Cc3cccc4ccccc34)o2)c1
- MIC [1]: 0.4 µM (≈ 0.117 µg/mL)

SMILES: CN1CCN(Cc2nnc(-c3ccccc3)o2)CC1
- MIC [2]: 1.6 µg/mL (≈ 6.19 µM)

SMILES: O=C(Nc1nnc(-c2ccc(F)cc2)o1)c1ccc(Cl)cc1
- Activity [3]: >90%
- MIC [4]: 1.6 µg/mL (≈ 5.04 µM)

SMILES: Oc1ccc(-c2nnc(S)o2)cc1
- IC50 (CHO-K1): 23.8 µg/mL (≈ 123 µM)
- selectivity ratio [5]: 39
- MIC [6]: 0.6 µg/mL (≈ 3.09 µM)

SMILES: Fc1ccc(-c2nnc(-c3n[nH]cc3-c3ccc(Cl)cc3)o2)cc1
- MIC [2]: 25 µg/mL (≈ 73.4 µM)

SMILES: N#Cc1ccc(-c2nnc(-c3n[nH]cc3-c3ccc(Cl)cc3)o2)cc1
- MIC [2]: 25 µg/mL (≈ 71.9 µM)

SMILES: Cn1c(-c2cccc(Cl)c2Cl)nc2cc(-c3nc(-c4ccc(Cl)cc4)no3)ccc21
- MIC [7]: 1.6 µg/mL (≈ 3.51 µM)

SMILES: Cn1c(-c2cccc(Cl)c2Cl)nc2cc(-c3nc(-c4ccccc4Cl)no3)ccc21
- MIC [7]: 1.6 µg/mL (≈ 3.51 µM)

SMILES: Cn1c(-c2cccc(Cl)c2F)nc2cc(-c3nc(-c4ccc(Cl)cc4)no3)ccc21
- MIC [7]: 1.6 µg/mL (≈ 3.64 µM)

SMILES: Cc1ccc2nc(Cl)c(CN(c3ccccc3)c3nnc(-c4cccnc4)o3)cc2c1
- inhibition at 250 µg/mL [8]: 96%
- LC50 at 24 h [9]: 26 µM

SMILES: Clc1ccc2nc(Cl)c(CN(c3ccccc3)c3nnc(-c4cccnc4)o3)cc2c1
- inhibition at 250 µg/mL [8]: 96%
- LC50 at 24 h [9]: 26 µM

SMILES: Cc1nn(-c2ccccc2)c(Oc2cccc(C(F)(F)F)c2)c1-c1nnc(-c2ccc(Br)cc2)o1
- inhibition at 250 µg/mL [8]: 91%

SMILES: Cc1ccc(-c2nnc(-c3c(C)nn(-c4ccccc4)c3Oc3cccc(F)c3)o2)cc1
- inhibition at 250 µg/mL [8]: > 90%

SMILES: Cc1ccc(-c2nnc(-c3c(C)nn(-c4ccccc4)c3Oc3ccc(F)cc3)o2)cc1
- inhibition at 250 µg/mL [8]: > 90%

SMILES: Cc1nn(-c2ccccc2)c(Oc2ccc(F)cc2)c1-c1nnc(-c2ccc(Br)cc2)o1
- inhibition at 250 µg/mL [8]: 91%

SMILES: CC1(C)Cc2c(C#CCO)c(NC(=O)C(C)(C)C)cc(-c3nnc(-c4ccc(C(F)(F)F)cc4)o3)c2O1
- IC90 [10]: 5.7 µM
- MIC [11]: 2 µg/mL (≈ 3.89 µM)

SMILES: Clc1nc2ccccc2cc1CN(c1ccccc1)c1nnc(-c2cccnc2)o1
- inhibition at 250 µg/mL [8]: 96%
- LC50 at 24 h [9]: 26 µM

SMILES: O=C(Nc1nnc(-c2ccc(Cl)cc2)o1)c1ccc([N+](=O)[O-])s1
- MIC [12]: 7.8 µg/mL (≈ 22.2 µM)
- MIC [13]: 7.8 µg/mL (≈ 22.2 µM)
- MIC ([14]; read-out: MIC100): 7.8 µg/mL (≈ 22.2 µM)

SMILES: CN1CCN(Cc2nnc(-c3ccc(Cl)cc3)o2)CC1
- MIC [2]: 3.12 µg/mL (≈ 10.7 µM)

SMILES: COc1ccc(-c2cc(-c3nnc(C)o3)nn2-c2ccc(NC(=O)c3ccc(F)cc3)cc2)cc1
- MIC [15]: > 50 µg/mL

SMILES: O=C(Nc1nnc(-c2ccc(Cl)cc2)o1)c1ccc([N+](=O)[O-])[nH]1
- MIC [12]: 31.2 µg/mL (≈ 93.6 µM)
- MIC [13]: 7.8 µg/mL (≈ 23.4 µM)
- MIC ([14]; read-out: MIC): 7.8 µg/mL (≈ 23.4 µM)

SMILES: Cc1nnc(-c2cc(-c3ccc(Cl)cc3)n(-c3ccc(NC(=O)c4ccccc4Cl)cc3)n2)o1
- MIC [15]: 1.56 µg/mL (≈ 3.18 µM)

SMILES: O=C(Nc1nnc(-c2ccc(Cl)cc2)o1)c1ccc([N+](=O)[O-])o1
- MIC [12]: 7.8 µg/mL (≈ 23.3 µM)
- MIC [13]: 7.8 µg/mL (≈ 23.3 µM)
- MIC ([14]; read-out: MIC100): 7.8 µg/mL (≈ 23.3 µM)

SMILES: O=c1[nH]nc(Cc2coc3cc(Cl)ccc23)o1
- MIC (Mycolicibacterium phlei): 3.12 µg/mL (≈ 12.5 µM)
- MIC [7]: 3.12 µg/mL (≈ 12.5 µM)

SMILES: O=C(Nc1nnc(-c2ccc(Cl)cc2)o1)c1cccc([N+](=O)[O-])c1
- MIC [12]: 7.8 µg/mL (≈ 22.6 µM)
- MIC [13]: 7.8 µg/mL (≈ 22.6 µM)
- MIC ([14]; read-out: MIC100): 7.8 µg/mL (≈ 22.6 µM)

SMILES: Cc1nn(-c2ccccc2)c(Oc2cccc(F)c2)c1-c1nnc(-c2ccccc2)o1
- inhibition at 250 µg/mL [8]: 91%

SMILES: O=C(Nc1nnc(-c2ccc(Cl)cc2)o1)c1ccccc1
- MIC [12]: 7.8 µg/mL (≈ 26 µM)
- MIC [13]: 31.2 µg/mL (≈ 104 µM)

SMILES: CO[C@H]1O[C@H](Cc2nnc(C)o2)[C@H](OCc2ccccc2)[C@H](OCc2ccccc2)[C@H]1OCc1ccccc1
- MIC [16]: 60 µM (≈ 31.8 µg/mL)

SMILES: COc1ccc(-c2cc(-c3nnc(C)o3)nn2-c2ccc(NC(=O)c3ccccc3)cc2)cc1
- MIC [15]: > 50 µg/mL

SMILES: O=c1[nH]nc(Cc2coc3ccc(Cl)cc23)o1
- MIC (Mycolicibacterium phlei): 3.12 µg/mL (≈ 12.5 µM)
- MIC [7]: 3.12 µg/mL (≈ 12.5 µM)

SMILES: COc1ccc(-c2nnc(CN3CCN(C)CC3)o2)cc1
- MIC [2]: 3.12 µg/mL (≈ 10.8 µM)

SMILES: O=c1[nH]nc(Cc2coc3cc(Br)ccc23)o1
- MIC (Mycolicibacterium phlei): 1.56 µg/mL (≈ 5.29 µM)
- MIC [7]: 1.56 µg/mL (≈ 5.29 µM)

SMILES: S=c1[nH]nc(CN2CCOCC2)o1
- MIC [17]: 7.8 µg/mL (≈ 38.8 µM)

SMILES: Cc1cccc(Oc2c(-c3nnc(-c4ccc(F)cc4)o3)c(C)nn2-c2ccccc2)c1
- inhibition at 250 µg/mL [8]: 91%

SMILES: S=c1[nH]nc(CN2CCSCC2)o1
- MIC [17]: 7.8 µg/mL (≈ 35.9 µM)

SMILES: O=C(CCCC(F)(F)F)C1CCC(c2nc(-c3nccs3)no2)CC1 (stereo not given)
- pIC50 [18]: 6.40

SMILES: CN1CCN(Cc2nnc(-c3ccc(O)cc3)o2)CC1
- MIC [2]: 3.12 µg/mL (≈ 11.4 µM)

SMILES: Cc1nnc(-c2cc(-c3ccc(Cl)cc3)n(-c3ccc(NC(=O)c4ccc(Cl)cc4)cc3)n2)o1
- MIC [15]: 3.13 µg/mL (≈ 6.38 µM)

SMILES: NC(=O)c1cnccn1 [PYRAZINAMIDE]
- MIC [2]: 3.12 µg/mL (≈ 25.3 µM)
- MIC (Mycolicibacterium phlei): 3.12 µg/mL (≈ 25.4 µM)
- MIC [7]: 3.12 µg/mL (≈ 25.4 µM)

SMILES: CO[C@H]1/C=C/O[C@@]2(C)Oc3c(C)c(O)c4c(O)c(c(/C=N/N5CCN(C)CC5)c(O)c4c3C2=O)NC(=O)/C(C)=C\C=C\[C@H](C)[C@H](O)[C@@H](C)[C@@H](O)[C@@H](C)[C@H](OC(C)=O)[C@@H]1C [RIFAMPIN]
- inhibition at 250 µg/mL [8]: 98%
- MIC [6]: 0.2 µg/mL (≈ 0.243 µM)

SMILES: CN[C@@H]1[C@H](O[C@H]2[C@H](O[C@H]3[C@H](O)[C@@H](O)[C@H](N=C(N)N)[C@@H](O)[C@@H]3N=C(N)N)O[C@@H](C)[C@]2(O)C=O)O[C@@H](CO)[C@H](O)[C@H]1O [STREPTOMYCIN]
- MIC (Mycolicibacterium phlei): 6.25 µg/mL (≈ 10.7 µM)
- MIC [7]: 6.25 µg/mL (≈ 10.7 µM)
- MIC [17]: 4 µg/mL (≈ 6.88 µM)

Source: ChEMBL document CHEMBL4732049, “Anti-tuberculosis activity and its structure-activity relationship (SAR) studies of oxadiazole derivatives: A key review” (Eur J Med Chem, 2021)
